Test results published in US7582638B2, “Pyrazole-isoquinoline urea derivatives as p38 kinase inhibitors” (Eli Lilly and Company, priority 2005, dated 2009).

How the values were obtained:
[1] = target: p38 kinase enzyme; test: Inhibition of p38 kinase (33P-ATP, EGF peptide 661-681 substrate); format: biochemical; conditions: 40 minutes at 30° C.
Description: The kinase buffer solution is prepared by combining 2.5 mL 1M Tris-HCl (pH 7.5), 0.1 mL 1 M dithiothreitol, 1.0 mL 1 M magnesium chloride, and 300 μL 1% Triton X-100 and diluting to 100 mL with water. 84 mL of this kinase buffer solution is combined with 16 mL DMSO to prepare the 16% DMSO solution.
The 200 μM ATP solution is prepared by adding 102.6 μL 10 mM aqueous ATP, 25 μL ^33P-ATP, and 163.5 μL of 4 mM aqueous Epidermal Growth Factor Peptide 661-681 (Biomol, Catalog #P-121) in 5 mL kinase buffer solution.
The p38 kinase enzyme solution is prepared by dissolving 9.5 μL concentrated enzyme solution (250 ng p38 enzyme/μL kinase buffer solution) in 1536 μL kinase buffer solution.
An 80 μM solution of each test compound and control compound are prepared by dissolving 2 μL of a 10 mM stock solution of the respective compounds in dimethylsulfoxide in 248 μL of the 16% DMSO solution in a Costar 96-well microtiter plate. […]
10 μL of serially diluted compound is placed with a Beckman Multimek 96-well automated liquid handler to the assay plate. […] The plates are allowed to sit for 30 min and counted on a PE/Wallac Microbeta Trilux scintillation counter for ^33P-isotope.
The compound exemplified in Example 12 is initially tested at 10 concentrations (20 μM-1 nM using 1:3 serial dilutions). […] IC50 values are calculated (IDBS ActivityBase software) for each compound using non-linear regression.

[2] = tested on: TNFα; test: Inhibition of TNFα in vivo (LPS challenge, plasma TNFα ELISA); conditions: female Balb/c mice, p.o., LPS 400 μg/kg IP 1 hour after compound, plasma 1.5 hours after LPS
Description: Compounds are administered p.o. (30, 10, 3 and 1 mg/kg) to female Balb/c mice (6 mice/dose). 1 hour following compound administration at 4 doses (P.O. at volume of 0.1 mL/mouse; vehicle: 1% NaCMC/0.25% Tween-80 in water); mice are given an IP-injection of LPS at 400 μg/kg. 1.5 hours after LPS challenging, mice are anesthetized with isoflurane and blood is taken via cardiac puncture. TNFa-levels in the plasma are determined using ELISA kit from R&D Systems and dose response ED50 is determined.
The compound exemplified in Example 12 is tested essentially as described above and suppressed TNFα in vivo with an TMED50 of 1.0 mg/kg. The Threshold Minimum Effective Dose (TMED) 50 is the dose at which greater than or equal to 50% inhibition was achieved and statistically different from control/placebo.

[3] = Oral exposure; format: in vivo; conditions: rat, 1 mg/kg, male Fischer 344 rats, fasted, gavage, suspension 1 mg/mL at 1 mL/kg, plasma
Description: Compounds are screened for oral exposure in male Fischer 344 rats. Animals are fasted overnight and administered test compounds prepared as suspensions in sodium carboxymethylcellulose (1% w/v) containing Tween 80 (0.25% v/v) and antifoam (0.1% w/v). Dose suspensions are prepared at 1 mg/mL and administered at 1 mL/kg by gavage. Blood samples are taken between 0.5 h and 7 h after dose administration and plasma are prepared by centrifugation. Plasma samples are analyzed using online solid phase extraction and LC/MS/MS.

[4] = tested on: p-MAPKAPK2; test: Anisomycin-stimulated mice ex-vivo phospho-MAPKAPK2 inhibition assay by flow cytometry; format: in vivo; conditions: female Balb/c mice, po, blood after 2 hours, ex vivo anisomycin 10 μg/ml, CD11b+Ly6G- cells
Description: Female Balb/c mice with 8-10 week-old age are purchased from Taconic Inc. and dosed po with 0.2 mL volume of compounds at the concentrations of 30, 10, 3, 1 mg/kg. Blood is obtained from cardiac puncture after 2 hours or other indicated time periods and collected in EDTA-containing tubes. 100 μL of blood is incubated at 37° C. for 10 minutes. Whole blood is then mixed with FITC-conjugated rat anti-mouse Ly-6G mAb (1:250) and APC-conjugated rat anti-mouse CD11b mAb (1:100) and stimulated with 10 μg/ml anisomycin. Both cell surface antigen staining and anisomycin stimulation is conducted at 37° C. for 15 min and followed up with Lyse/Fix buffer (BD Biosciences, Cat# 558049) for 10 min at room temperature. Lysed blood samples are spun down at 600×g for 8 minutes at room temperature with additional wash once by 4 mL PBS. 200 μL of diluted anti-Phospho-MAPKAPK-2 (Thr334) antibody (1:100 dilution) (Cell Signaling, Cat# 3041) and mouse BD Fc Block (1:100 dilution) (BD Biosciences, 553141) in permeabilization Medium B (Caltag, Cat# GAS002S-5) are added into blood cells and incubate at room temperature for 30 min. After the incubation, 3 mL of stain/wash buffer is added and cells are spanned down as described above with additional wash with 3 ml stain/wash buffer. […] Mean fluorescence of phosphono-MapKap-K2 staining is measured on gated CD11b+Ly6G-cells. […]

- IC50 [1]: 34 nM
- Cmax [3]: 9390 ng/mL
- AUC(0-t) ([3]; read-out: AUC (0-7 h)): 36800 ng·h/mL
SMILES: CS(=O)(=O)O.Cc1ccc(-n2nc(C3(C)CC3)cc2NC(=O)Nc2cnc(OC3CCN(C(=O)C4(C)CC4)CC3)c3ccccc23)cc1 [Example 12, 1-{1-[1-(1-Methyl-cyclopropanecarbonyl)-piperidin-4-yloxy]-isoquinolin-4-yl}-3-[5-(1-methyl-cyclopropyl)-2-p-tolyl-2H-pyrazol-3-yl]-urea mesylate]
- TMED50, suppression of TNFα in vivo [2]: 1.0 mg/kg
- TMED50, inhibition of p-MAPKAPK2 synthesis [4]: 2.20 mg/kg
